Experimental data from US20080153872A1, “Bis-(Coumarin) Compounds With Anti-Inflammatory Activity” (priority 2005, published 2008).

Legend:
human 5-LO = target: T1, human 5-LO (Homo sapiens, UniProt P09917); experiment: Human 5-Lipoxygenase, 5-LO, assay in peripheral mononuclear blood cells; format: cell-based; settings: 10 μM concentration, LTB4 readout
T1 construct: Human peripheral mononuclear blood cells were isolated using Ficoll density separation; endogenous in cells; host or cells: human peripheral blood mononuclear cells
T1 sequence (P09917 1-674): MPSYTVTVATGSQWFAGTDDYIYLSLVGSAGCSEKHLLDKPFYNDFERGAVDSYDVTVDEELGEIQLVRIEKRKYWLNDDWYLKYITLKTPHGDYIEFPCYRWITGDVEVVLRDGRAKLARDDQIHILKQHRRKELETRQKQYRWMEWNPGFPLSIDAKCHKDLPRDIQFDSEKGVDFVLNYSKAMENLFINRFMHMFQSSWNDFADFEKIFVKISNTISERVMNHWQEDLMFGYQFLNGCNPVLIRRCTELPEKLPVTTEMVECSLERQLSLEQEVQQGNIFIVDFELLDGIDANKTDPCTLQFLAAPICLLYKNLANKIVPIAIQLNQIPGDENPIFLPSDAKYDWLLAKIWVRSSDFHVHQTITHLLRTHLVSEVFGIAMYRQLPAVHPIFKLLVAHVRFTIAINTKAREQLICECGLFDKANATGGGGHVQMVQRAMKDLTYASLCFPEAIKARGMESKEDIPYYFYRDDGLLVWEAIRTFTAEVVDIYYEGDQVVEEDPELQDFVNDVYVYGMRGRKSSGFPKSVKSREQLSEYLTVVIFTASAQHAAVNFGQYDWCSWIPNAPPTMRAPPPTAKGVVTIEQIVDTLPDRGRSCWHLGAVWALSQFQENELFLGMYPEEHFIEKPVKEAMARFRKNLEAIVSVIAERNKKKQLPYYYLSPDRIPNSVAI
Description: (§1) All compounds were dissolved in dimethyl sulfoxide (DMSO). Final concentration of the DMSO in all tests was 1% (v/v). Inhibition in all tests is considered preferred if it exceeds 50% at 10 μM concentration (or less).
Human peripheral mononuclear blood cells were isolated using Ficoll density separation. Cells were incubated in Hanks Balanced Salt Solution (HBSS) with compounds for 15 minutes at 37° C. Substrate (arachidonic acid) was added in 20 μM final concentration and cells were incubated for another 15 minutes. LTB4 as a final product of arachidonic acid metabolism was measured using competitive enzyme immunoassay (See, e.g., Safayhi, H. et al. Planta Medica 2000, 66, 110-113) and percentage of inhibition was calculated from the levels of LTB4 in cell supernatant.

Tachykinin NK2 receptor = target: T2, Tachykinin NK2 receptor (Homo sapiens, UniProt P21452); experiment: Human tachykinin NK2 receptor assay (SR-48968 competition); format: binding; settings: 10 μM concentration; CHO-K1, competition with SR-48968
T2 construct: expressed in transfected cells; host or cells: CHO-K1
T2 sequence (P21452 1-398): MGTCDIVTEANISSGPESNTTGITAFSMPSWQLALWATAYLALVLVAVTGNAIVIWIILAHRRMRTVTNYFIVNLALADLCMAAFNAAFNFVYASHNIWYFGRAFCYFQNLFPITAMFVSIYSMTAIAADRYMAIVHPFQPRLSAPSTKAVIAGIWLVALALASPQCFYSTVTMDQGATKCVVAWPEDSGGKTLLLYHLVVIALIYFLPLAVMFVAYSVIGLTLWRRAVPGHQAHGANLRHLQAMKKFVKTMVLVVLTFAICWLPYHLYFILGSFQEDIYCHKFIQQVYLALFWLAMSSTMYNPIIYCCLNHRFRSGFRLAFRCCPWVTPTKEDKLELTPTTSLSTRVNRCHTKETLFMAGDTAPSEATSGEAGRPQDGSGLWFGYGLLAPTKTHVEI
Description: as §1
Tachykinin NK2 receptor is expressed in Chinese hamster ovary cell line, clone K1 (CHO-K1). Substances and radioactive competitor (tritium labelled SR-48968) are incubated with cells in HEPES/NaOH buffer for 90 minutes at 25° C. in the presence of manganese ions. Levels of the bound SR-48968 is measured by scintillation counting, and competition is calculated from the total amount of the bound SR-48968 in treated and control samples. Tachykinin receptors are involved in physiological and pathological processes of inflammation and pain. Tachykinin NK2 has been identified as a target for intervention in asthma, GI disease, irritable bowel syndrome and pancreatitis.

IL-5 = experiment: Inhibition of IL-5 production by ConA stimulated mouse splenocytes; format: cell-based; settings: 25 μM
Description: (§2) Spleen cell suspension was obtained from BALB/c mice and lymphocytes separated by gradient density centrifugation on Histopaque 1.083 on 400 g for 30 minutes. They were washed once in medium, counted and their number adjusted as 3×10^5/200 μL/well in 96 flat bottomed culture plate in RPMI supplemented with 10% fetal bovine serum. Cells were stimulated on cytokine production by adding concanavalinA (ConA) at 5 μg/mL final concentration. Unstimulated cells were cultured in medium alone. Stock solution was prepared out of testing compounds as 10 mM in DMSO. Final concentrations made in cell culture medium were tested when they had been added together with ConA. After 72 hours incubation period cell culture supernatants were collected. In each sample IL-4, IL-5, IL-10 and IFNγ were detected and quantified using enzyme linked immunosorbent assay (ELISA) specific for pointed cytokines (R&D Systems).
(§3) To calculate results, standard curve was made out of measured OD values for recombinant protein in known concentrations. Cytokine content in unknown samples was calculated out of OD values extrapolated from the standard curve.
(§4) Percentage of inhibition is calculated using formula:
(§5) % Inhibition=(1−cytokine concentration of sample/cytokine concentration of positive control)×100.

Human recombinant Lck = target: T3, Human recombinant Lck (Homo sapiens, UniProt P06239); experiment: Human protein tyrosine kinase, Lck, inhibition assay; format: biochemical; settings: 10 μM
T3 construct: made in house; host or cells: Sf21 insect cells
Description: as §1
Human recombinant Lck is expressed in insect Sf21 expression system and purified. Substances are pre-incubated for 15 minutes at 25° C. in HEPES buffer containing ATP, pervanadate and magnesium. Substrate (poly Glu-Tyr) is added and incubated for 60 minutes at 25° C. Activity of the enzyme is measured using phosphotyrosine (p-Tyr) specific enzyme immunoassay and inhibition is calculated from the determination of the concentration of p-Tyr. Protein tyrosine kinase, Lck, is a protein tyrosine kinase which is abundantly expressed in T-lymphocytes and is essential for T-cell receptor signal transduction and thus activation of T-lymphocytes. Lck activation stimulates recruitment and activation of ZAP-70, which is essential for T-cell activation. Inhibitors of Lck act as immunoregulatory agents in various models. Lck is implicated in T-cell leukemias and inflammation.

IL-10 = experiment: Inhibition of IL-10 production by ConA stimulated mouse splenocytes; format: cell-based; settings: 25 μM
Description: as §2, §3, §4, §5

T3 sequence (P06239 whole entry): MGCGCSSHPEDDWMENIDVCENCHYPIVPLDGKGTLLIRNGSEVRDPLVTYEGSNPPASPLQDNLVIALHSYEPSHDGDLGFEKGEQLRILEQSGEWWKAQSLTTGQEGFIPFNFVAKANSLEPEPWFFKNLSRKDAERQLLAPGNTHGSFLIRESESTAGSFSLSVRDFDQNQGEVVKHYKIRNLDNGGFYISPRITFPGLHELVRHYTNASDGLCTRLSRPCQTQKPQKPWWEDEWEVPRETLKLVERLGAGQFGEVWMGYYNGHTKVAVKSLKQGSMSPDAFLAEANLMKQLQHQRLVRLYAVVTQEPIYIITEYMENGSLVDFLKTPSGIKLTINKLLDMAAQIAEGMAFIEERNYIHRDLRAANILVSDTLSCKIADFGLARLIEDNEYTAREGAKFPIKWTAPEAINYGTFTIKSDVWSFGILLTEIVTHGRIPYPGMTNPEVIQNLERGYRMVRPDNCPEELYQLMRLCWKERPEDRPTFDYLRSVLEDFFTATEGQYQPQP

SMILES	inhibition of human 5-LO (human 5-LO)	inhibition of NK2 activity (Tachykinin NK2 receptor)	inhibition of IL-5 production (IL-5)	inhibition of human Lck activity (Human recombinant Lck)	inhibition of IL-10 production (IL-10)
CC(=O)C(c1c(O)c2cccc(C(C)C)c2oc1=O)c1c(O)c2cccc(C(C)C)c2oc1=O [Example 19]	significantly relevant activity	significant inhibition	significantly inhibited	significantly inhibited	
CC(C)c1cccc2c(O)c(C(CO)c3c(O)c4cccc(C(C)C)c4oc3=O)c(=O)oc12 [Example 30]	significantly relevant activity		significantly inhibited		significantly inhibited
CC(C)c1cccc2c(O)c(C(C(=O)OCCO)c3c(O)c4cccc(C(C)C)c4oc3=O)c(=O)oc12 [Example 50]	significantly relevant activity	significant inhibition			
